According to ChEMBL document CHEMBL1201862, “PubChem BioAssay data set” (2004):
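1) Cells in 96-well plates. 2) Compound, 48 h, 5 concentrations. 3) Linear interpolation between surrounding doses. 4) Unreached endpoint = highest concentration. At the GI50, growth is halved.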 Active and inactive are the calls of the source. Rule as the data show it: active = GI50 up to about 1.1 µM and inactive = higher.

Legend:
Experiment in all cases: inhibition of tumour cell growth, NCI panel, 48 h
786-0 = system: 786-0
ACHN = system: ACHN
CAKI-1 = system: CAKI-1
CCRF-CEM = system: CCRF-CEM
DU-145 = system: DU-145
EKVX = system: EKVX
HCT-116 = system: HCT-116
HOP-62 = system: HOP-62
Hs-578T = system: Hs-578T
MDA-MB-435 = system: MDA-MB-435
Malme-3M = system: Malme-3M
OVCAR-5 = system: OVCAR-5
PC-3 = system: PC-3
SF-539 = system: SF-539
SN12C = system: SN12C
UACC-257 = system: UACC-257
UACC-62 = system: UACC-62
HL-60 = system: HL-60
LOX IMVI = system: LOX IMVI

Compound	GI50 (786-0)	GI50 (ACHN)	GI50 (CAKI-1)	GI50 (CCRF-CEM)	GI50 (DU-145)	GI50 (EKVX)	GI50 (HCT-116)	GI50 (HOP-62)	GI50 (Hs-578T)	GI50 (MDA-MB-435)	GI50 (Malme-3M)	GI50 (OVCAR-5)	GI50 (PC-3)	GI50 (SF-539)	GI50 (SN12C)	GI50 (UACC-257)	GI50 (UACC-62)	GI50 (HL-60)	GI50 (LOX IMVI)
O=[N+]([O-])c1ccc2nc(O)c(/C=C(\O)c3ccccc3)nc2c1	4.78 µM (inactive)	26.4 µM (inactive)	21.4 µM (inactive)	> 100 µM (inactive)	> 100 µM (inactive)	49.4 µM (inactive)	13.7 µM (inactive)	5.52 µM (inactive)	2.23 µM (inactive)	35.2 µM (inactive)	55.8 µM (inactive)	> 100 µM (inactive)	28.8 µM (inactive)	15.3 µM (inactive)	12.2 µM (inactive)	> 100 µM (inactive)	24.4 µM (inactive)		
C=C(C)C(=O)N1c2ccc(OC)cc2CC1C(=O)OCC (stereo unspecified)	> 100 µM (inactive)	> 100 µM (inactive)	> 100 µM (inactive)	> 100 µM (inactive)	> 100 µM (inactive)	> 100 µM (inactive)	> 100 µM (inactive)	> 100 µM (inactive)	> 100 µM (inactive)			> 100 µM (inactive)	> 100 µM (inactive)	> 100 µM (inactive)	> 100 µM (inactive)	> 100 µM (inactive)	> 100 µM (inactive)	> 10 µM (inactive)	
C=CC(c1ccccc1)C1(O)c2cccc(O)c2C(=O)c2c(O)cccc21 (stereo unspecified)	17.4 µM (inactive)	17.8 µM (inactive)	16.7 µM (inactive)		14.5 µM (inactive)	16.3 µM (inactive)	11.5 µM (inactive)	17.3 µM (inactive)	15.8 µM (inactive)	4.01 µM (inactive)		22.1 µM (inactive)	13.9 µM (inactive)	29.3 µM (inactive)		17.8 µM (inactive)			16.4 µM (inactive)
O=c1c2ccccc2n2nnc3ccc(NCCCNCCNCCCNc4ccc5nnn6c7ccccc7c(=O)c4c56)c1c32	0.48 µM (active)	0.986 µM (active)	3.86 µM (inactive)	0.448 µM (active)	5.77 µM (inactive)	7.03 µM (inactive)	0.207 µM (active)	2.99 µM (inactive)	5.52 µM (inactive)		5.83 µM (inactive)	6.44 µM (inactive)	3.21 µM (inactive)	0.724 µM (active)	0.457 µM (active)	8.73 µM (inactive)	14.1 µM (inactive)	1.1 µM (active)	0.566 µM (active)
CC(=O)c1ccc(N2CCN(C3=C(Cl)C(=O)c4c(O)ccc(O)c4C3=O)CC2)cc1	14.2 µM (inactive)		4.89 µM (inactive)	0.417 µM (active)	17.1 µM (inactive)	18.7 µM (inactive)	3.5 µM (inactive)	8.95 µM (inactive)			11.4 µM (inactive)	18.9 µM (inactive)	5.64 µM (inactive)	13.8 µM (inactive)		7.6 µM (inactive)	2.74 µM (inactive)	0.271 µM (active)	
CC(C)(C)NC(=O)N1N=C(c2ccccc2)C1c1ccccc1 (stereo unspecified)	15.7 µM (inactive)	34.5 µM (inactive)	26.4 µM (inactive)	22.6 µM (inactive)	> 100 µM (inactive)	42.6 µM (inactive)	19.7 µM (inactive)		48.3 µM (inactive)		25.3 µM (inactive)	> 100 µM (inactive)	26.6 µM (inactive)	22.1 µM (inactive)	43.5 µM (inactive)	25.5 µM (inactive)	52.6 µM (inactive)	32.6 µM (inactive)	35.7 µM (inactive)
